Experimental data as given in publication PMC5035018, “Arachidonic Acid Metabolite 19(S)-HETE Induces Vasorelaxation and Platelet Inhibition by Activating Prostacyclin (IP) Receptor” (PLoS ONE, 2016).

Target: T1, prostacyclin (IP) receptor (Homo sapiens, UniProt P43119)
T1 construct: gene PTGIR; human IP receptor cDNA expressed in COS-1 cells
Assay: [3H]-iloprost competition radioligand binding on transfected COS-1 cells (also cAMP EC50 […])
Type: cell-based

T1 sequence (P43119 1-383): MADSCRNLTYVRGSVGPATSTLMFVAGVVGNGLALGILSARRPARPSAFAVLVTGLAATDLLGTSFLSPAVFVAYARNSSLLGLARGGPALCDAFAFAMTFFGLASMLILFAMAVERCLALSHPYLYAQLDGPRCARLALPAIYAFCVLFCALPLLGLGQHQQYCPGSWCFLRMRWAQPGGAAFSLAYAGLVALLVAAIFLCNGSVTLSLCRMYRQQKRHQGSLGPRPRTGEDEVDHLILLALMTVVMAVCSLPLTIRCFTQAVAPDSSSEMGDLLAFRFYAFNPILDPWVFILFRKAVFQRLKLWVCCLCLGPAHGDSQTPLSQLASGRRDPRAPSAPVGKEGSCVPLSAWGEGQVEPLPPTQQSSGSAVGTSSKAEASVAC

## C[C@H](O)CCC/C=C\C/C=C\C/C=C\C/C=C\CCCC(=O)O [19(S)-HETE, 19(S)-hydroxy-5Z,8Z,11Z,14Z-eicosatetraenoic acid]
  Ki: 660 nM
